Assay results reported in patent publication US20230192700A1, “PYRAZOLOPYRAZINES ACTING ON CANCERS VIA INHIBITION OF CDK12” (Bayer Aktiengesellschaft, priority 2020, published 2023).
Like-named read-outs stand apart in the source and are kept apart here.

Columns and labels:
[1] = target: T1, CDK9/CyclinT1 (Homo sapiens, UniProt P50750); assay: CDK9/CycT1 high ATP kinase assay (TR-FRET); format: biochemical; conditions: 2 mM ATP (high ATP); median; read-out: CDK9/CyclinT1, 2 mM ATP (high ATP) IC50 - [mol/l] (median)
T1 construct: Recombinant full-length His-tagged human CDK9 and CycT1; His-tag; purchased Life Technologies PV4131; host or cells: insect cells
Procedure: 2.5 CDK9/CycT1 High ATP Kinase Assay
CDK9/CycT1 -inhibitory activity of compounds of the present invention at a high ATP concentration after preincubation of enzyme and test compounds was quantified employing the CDK9/CycT1 TR-FRET assay as described in the following paragraphs.
Recombinant full-length His-tagged human CDK9 and CycT1, expressed in insect cells and purified by Ni-NTA affinity chromatography, were purchased from Life Technologies (Cat. No PV4131). As substrate for the kinase reaction biotinylated peptide biotin-Ttds-YISPLKSPYKISEG (C-terminus in amide form) was used which can be purchased e.g. form the company JERINI peptide technologies (Berlin, Germany).
For the assay 50 nanoL of a 100 fold concentrated solution of the test compound in DMSO was pipetted into either a black low volume 384 well microtiter plate or a black 1536 well microtiter plate (both Greiner Bio-One, Frickenhausen, Germany), 2 microL of a solution of CDK9/CycT1 in aqueous assay buffer [50 millimol/L Tris/HCl pH 8.0, 10 millimol/L MgCl2, 1.0 millimol/L dithiothreitol, 0.1 millimol/L sodium ortho-vanadate, 0.01% (v/v) Nonidet-P40 (Sigma)] were added and the mixture was incubated for 15 min at 22° C. to allow pre-binding of the test compounds to the enzyme before the start of the kinase reaction. Then the kinase reaction was started by the addition of 3 microL of a solution of adenosine-tri-phosphate (ATP, 3.3 millimol/L=>final conc. in the 5 microL assay volume is 2 millimol/L) and substrate (1.25 micromol/L =>final conc. in the 5 microL assay volume is 0.75 micromol/L) in assay buffer and the resulting mixture was incubated for a reaction time of 25 min at 22° C. The concentration of CDK9/CycT1 was adjusted depending of the activity of the enzyme lot and was chosen appropriate to have the assay in the linear range, typical concentrations were in the range of 0.5 microg/mL. The reaction was stopped by the addition of 3 microL of a solution of TR-FRET detection reagents (0.33 micromol/L streptavidine-XL665 [Cisbio Bioassays, Codolet, France] and 1.67 nanomol/L anti-RB(pSer807/pSer811)-antibody from BD Pharmingen [#558389] and 2 nanomol/L LANCE EU-W1024 labeled anti-mouse IgG antibody [Perkin-Elmer, product no. AD0077]) in an aqueous EDTA-solution (167 millimol/L EDTA, 0.2% (w/v) bovine serum albumin in 100 millimol/L HEPES pH 7.5).
The resulting mixture was incubated 1 h at 22° C. to allow the formation of complex between the phosphorylated biotinylated peptide and the detection reagents. Subsequently the amount of phosphorylated substrate was evaluated by measurement of the resonance energy transfer from the Eu-chelate to the streptavidine-XL. Therefore, the fluorescence emissions at 620 nm and 665 nm after excitation at 350 nm was measured in a TR-FRET reader, e.g. a Pherastar (BMG Labtechnologies, Offenburg, Germany) or a Viewlux (Perkin-Elmer). The ratio of the emissions at 665 nm and at […] was taken as the measure for the amount of phosphorylated substrate. The data were normalised (enzyme reaction without inhibitor=0% inhibition, all other assay components but no enzyme=100% inhibition).

[2] = test system: CAL-120 human breast adenocarcinoma cells; assay: Proliferation assay CAL-120 (crystal violet); format: cell-based; conditions: CAL-120 cells, 4 days, median, read-out: Prolif-CAL-120— IC50 - [mol/l] (median)
Procedure: 4. Proliferation assay: MDA-MB-231, CAL-120
Human tumour cells were originally obtained from the American Type Culture Collection (ATCC), or from the Deutsche Sammlung von Mikroorganismen and Zellkulturen (DSMZ, German Collection of Microorganisms and Cell Cultures). Cultivated tumour cells (CAL-120, human breast adenocarcinoma cells, DSMZ ACC-459; MDA-M B-231, human breast cancer cells, ATCC HTB-26) were plated at a density of 4,000 cells/well in a 96-well multititer plate in 200 microL of their respective growth medium supplemented 10% fetal calf serum. After 24 hours, the cells of one plate (zero-point plate) were stained with crystal violet (see below), while the medium of the other plates was supplemented with the test substances in various concentrations (0 micromol/L, as well as in the range of 0.01-10 micromol/L; the final concentration of the solvent dimethyl sulfoxide was adjusted to 0.1%) using a Tecan HP D300 Digital Dispenser. The cells were incubated for 4 days in the presence of test substances. Cell proliferation was determined by staining the cells with crystal violet: the cells were fixed by adding 20 microL/measuring point of an 11% glutaric aldehyde solution for 15 minutes at room temperature. After three washing cycles of the fixed cells with water, the plates were dried at room temperature. The cells were stained by adding 100 microL/measuring point of a 0.1% crystal violet solution (pH 3.0). After three washing cycles of the stained cells with water, the plates were dried at room temperature. The dye was dissolved by adding 100 microL/measuring point of a 10% acetic acid solution. The extinction was determined by photometry at a wavelength of 595 nm. The change of cell number, in percent, was calculated by normalization of the measured values to the extinction values of the zero-point plate(=0%) and the extinction of the untreated (0 μM) cells(=100%). The IC50 values (inhibitory concentration at 50% of maximal effect) were determined by means of a 4 parameter fit.

T1 sequence (P50750 whole entry): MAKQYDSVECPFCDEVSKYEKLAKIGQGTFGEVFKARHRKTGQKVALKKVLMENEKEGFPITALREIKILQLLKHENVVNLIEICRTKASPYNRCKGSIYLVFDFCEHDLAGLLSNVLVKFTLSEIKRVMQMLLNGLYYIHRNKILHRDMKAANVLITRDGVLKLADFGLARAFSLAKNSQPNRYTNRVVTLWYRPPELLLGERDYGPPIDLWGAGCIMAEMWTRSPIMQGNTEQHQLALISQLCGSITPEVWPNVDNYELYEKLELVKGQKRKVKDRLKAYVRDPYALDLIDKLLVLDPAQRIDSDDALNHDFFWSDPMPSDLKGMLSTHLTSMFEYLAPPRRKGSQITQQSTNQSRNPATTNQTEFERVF
T1 sequence (O60563 whole entry partner): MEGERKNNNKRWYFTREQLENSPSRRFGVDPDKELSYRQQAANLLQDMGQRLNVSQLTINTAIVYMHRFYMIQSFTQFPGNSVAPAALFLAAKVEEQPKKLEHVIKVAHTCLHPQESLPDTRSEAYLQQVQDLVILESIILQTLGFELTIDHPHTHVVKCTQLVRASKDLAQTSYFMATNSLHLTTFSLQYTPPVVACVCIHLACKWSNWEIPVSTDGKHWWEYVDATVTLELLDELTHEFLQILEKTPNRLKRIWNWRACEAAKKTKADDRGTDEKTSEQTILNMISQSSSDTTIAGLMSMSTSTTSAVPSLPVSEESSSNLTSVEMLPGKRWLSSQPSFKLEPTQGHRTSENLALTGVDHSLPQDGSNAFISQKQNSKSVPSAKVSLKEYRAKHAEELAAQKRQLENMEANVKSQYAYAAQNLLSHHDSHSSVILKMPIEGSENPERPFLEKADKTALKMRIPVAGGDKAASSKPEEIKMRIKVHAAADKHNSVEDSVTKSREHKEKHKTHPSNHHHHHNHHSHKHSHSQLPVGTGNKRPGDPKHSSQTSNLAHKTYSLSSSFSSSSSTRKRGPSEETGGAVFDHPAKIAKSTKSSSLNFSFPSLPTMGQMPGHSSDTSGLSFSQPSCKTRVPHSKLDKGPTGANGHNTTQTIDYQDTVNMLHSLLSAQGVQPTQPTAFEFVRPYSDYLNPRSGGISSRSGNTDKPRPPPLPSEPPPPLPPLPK

Row | SMILES | IC50 [1] [nM] | IC50 ([2]; Homo sapiens, CAL-120, 96 h) [nM] | IC50 [2] [nM]
1 | O[C@H]1C[C@@H](n2nc(NCc3nc4ccccc4[nH]3)c3ncc(C4CC4)nc32)C1 [Example 40, cis-3-(3-{[(1H-benzimidazol-2-yl)methyl]amino}-6-cyclopropyl-1H-pyrazolo[3,4-b]pyrazin-1-yl)cyclobutan-1-ol] | > 20000 | 34.6 | 
2 | COCCC(C)n1nc(NCc2nc3ccccc3[nH]2)c2ncc(C3CC3)nc21 (single isomer, unassigned; (-)) [Example 58, (−)-N-[(1H-benzimidazol-2-yl)methyl]-6-cyclopropyl-1-[4-methoxybutan-2-yl]-1H-pyrazolo[3,4-b]pyrazin-3-amine] | > 20000 |  | 156
3 | OCCn1nc(NCc2nc3ccccc3[nH]2)c2ncc(C3CC3)nc21 [Example 66, 2-(3-{[(1H-benzimidazol-2-yl)methyl]amino}-6-cyclopropyl-1H-pyrazolo[3,4-b]pyrazin-1-yl)ethan-1-ol] | > 20000 | 160 | 
4 | CN1CCC(n2nc(NCc3nc4c(Br)cccc4[nH]3)c3ncc(C4CC4)nc32)CC1 [Example 20, N-[(4-bromo-1H-benzimidazol-2-yl)methyl]-6-cyclopropyl-1-(1-methylpiperidin-4-yl)-1H-pyrazolo[3,4-b]pyrazin-3-amine] | > 20000 | 7.27 | 
5 | CN1CCC(n2nc(NCc3nc4cc(Cl)c(Cl)cc4[nH]3)c3ncc(C4CC4)nc32)CC1 [Example 19, 6-cyclopropyl-N-[(5,6-dichloro-1H-benzimidazol-2-yl)methyl]-1-(1-methylpiperidin-4-yl)-1H-pyrazolo[3,4-b]pyrazin-3-amine] | > 20000 | 3.61 | 
6 | CN1CCC(n2nc(NCc3nc4cc(F)c(F)cc4[nH]3)c3ncc(C4CC4)nc32)CC1 [Example 30, 6-cyclopropyl-N-[(5,6-difluoro-1H-benzimidazol-2-yl)methyl]-1-(1-methylpiperidin-4-yl)-1H-pyrazolo[3,4-b]pyrazin-3-amine] | > 20000 | 13.4 | 
7 | COCCC(C)n1nc(NCc2nc3ccccc3[nH]2)c2ncc(C3CC3)nc21 (racemic) [Example 57, (±)-N-[(1H-benzimidazol-2-yl)methyl]-6-cyclopropyl-1-(4-methoxybutan-2-yl)-1H-pyrazolo[3,4-b]pyrazin-3-amine] | > 20000 | 105 | 
8 | c1ccc2[nH]c(CNc3nn(C4CCC4)c4nc(C5CC5)cnc34)nc2c1 [Example 49, N-[(1H-benzimidazol-2-yl)methyl]-1-cyclobutyl-6-cyclopropyl-1H-pyrazolo[3,4-b]pyrazin-3-amine] | > 20000 | 122 | 
9 | O[C@H]1CC[C@H](n2nc(NCc3nc4ccccc4[nH]3)c3ncc(C4CC4)nc32)CC1 [Example 50, trans-4-(3-{[(1H-benzimidazol-2-yl)methyl]amino}-6-cyclopropyl-1H-pyrazolo[3,4-b]pyrazin-1-yl)cyclohexan-1-ol] | > 20000 | 11 | 
10 | CN1CCC(n2nc(NCc3nc4c(Cl)c(F)ccc4[nH]3)c3ncc(C4CC4)nc32)CC1 [Example 31, N-[(4-chloro-5-fluoro-1H-benzimidazol-2-yl)methyl]-6-cyclopropyl-1-(1-methylpiperidin-4-yl)-1H-pyrazolo[3,4-b]pyrazin-3-amine] | > 20000 | 7.09 | 
11 | COCCCn1nc(NCc2nc3ccccc3[nH]2)c2ncc(C3CC3)nc21 [Example 61, N-[(1H-benzimidazol-2-yl)methyl]-6-cyclopropyl-1-(3-methoxypropyl)-1H-pyrazolo[3,4-b]pyrazin-3-amine] | > 20000 | 60.6 | 

Further lines, results first:

Row | IC50 [1] [nM] | IC50 ([2]; Homo sapiens, CAL-120, 96 h) [nM] | IC50 [2] [nM] | SMILES
12 | > 20000 | 20.1 |  | OC[C@H]1C[C@H](n2nc(NCc3nc4ccccc4[nH]3)c3ncc(C4CC4)nc32)C1 [Example 46, [trans-3-(3-{[(1H-benzimidazol-2-yl)methyl]amino}-6-cyclopropyl-1H-pyrazolo[3,4-b]pyrazin-1-yl)cyclobutyl]methanol]
13 | > 20000 | 32.8 |  | CN1CCC(n2nc(NCc3nc4ccccc4[nH]3)c3ncc(C4CC4)nc32)CC1 [Example 1, N-[(1H-benzimidazol-2-yl)methyl]-6-cyclopropyl-1-(1-methylpiperidin-4-yl)-1H-pyrazolo[3,4-b]pyrazin-3-amine]
14 | > 20000 |  | 71.9 | c1ccc2[nH]c(CNc3nn(C4CCOC4)c4nc(C5CC5)cnc34)nc2c1 (single isomer, unassigned) [Example 18, (-) or (+) -N-[(1H-benzimidazol-2-yl)methyl]-6-cyclopropyl-1-[oxolan-3-yl]-1H-pyrazolo[3,4-b]pyrazin-3-amine]
15 | > 20000 | 27.5 |  | OC[C@H]1C[C@@H](n2nc(NCc3nc4ccccc4[nH]3)c3ncc(C4CC4)nc32)C1 [Example 47, [cis-3-(3-{[(1H-benzimidazol-2-yl)methyl]amino}-6-cyclopropyl-1H-pyrazolo[3,4-b]pyrazin-1-yl)cyclobutyl]methanol]
16 | > 20000 | 46.7 |  | OCC1(Cn2nc(NCc3nc4ccccc4[nH]3)c3ncc(C4CC4)nc32)CCC1 [Example 74, {1-[(3-{[(1H-benzimidazol-2-yl)methyl]amino}-6-cyclopropyl-1H-pyrazolo[3,4-b]pyrazin-1-yl)methyl]cyclobutyl}methanol]
17 | > 20000 | 84.5 |  | CC1COCCC1n1nc(NCc2nc3ccccc3[nH]2)c2ncc(C3CC3)nc21 (racemic) [Example 42, (±)-cis/trans-N-[(1H-benzimidazol-2-yl)methyl]-6-cyclopropyl-1-(3-methyloxan-4-yl)-1H-pyrazolo[3,4-b]pyrazin-3-amine]
18 | > 20000 |  | 295 | CC(CCN(C)C)n1nc(NCc2nc3ccccc3[nH]2)c2ncc(C3CC3)nc21 (single isomer, unassigned) [Example 64, (−) or(+)-N-[(1H-benzimidazol-2-yl)methyl]-6-cyclopropyl-1-[4-(dimethylamino)butan-2-yl]-1H-pyrazolo[3,4-b]pyrazin-3-amine]
19 | > 20000 | 9.54 |  | Cc1ccc2[nH]c(CNc3nn(C4CCN(C)CC4)c4nc(C5CC5)cnc34)nc2c1C [Example 28, 6-cyclopropyl-N-[(4,5-dimethyl-1H-benzimidazol-2-yl)methyl]-1-(1-methylpiperidin-4-yl)-1H-pyrazolo[3,4-b]pyrazin-3-amine]
